Reference: paper PMC9518264, “Design and synthesis of novel quinazolinone-based derivatives as EGFR inhibitors with antitumor activity” (Journal of Enzyme Inhibition and Medicinal Chemistry, 2022)

Assays:
[1] = test system: MDA-MB-435; experiment: cells; type: cell-based; details: Homo sapiens, MDA-MB-435, read-out: growth inhibition % (GI%)
[2] = test system: PC-3; experiment: cells; type: cell-based; details: Homo sapiens, PC-3, read-out: growth inhibition % (GI%)
[3] = test system: HOP-62; experiment: cells; type: cell-based; details: Homo sapiens, HOP-62, read-out: growth inhibition % (GI%)
[4] = test system: A549/ATCC; experiment: cells; type: cell-based; details: Homo sapiens, A549, read-out: growth inhibition % (GI%)
[5] = test system: SF-539; experiment: cells; type: cell-based; details: Homo sapiens, SF-539, read-out: growth inhibition % (GI%)
[6] = test system: MDA-MB-231/ATCC; experiment: NCI 60 cell line antiproliferative screening (SRB), Breast cancer; type: cell-based; details: Homo sapiens, MDA-MB-231, read-out: growth inhibition % (GI%)
[7] = test system: U251; experiment: cells; type: cell-based; details: Homo sapiens, U-251, read-out: growth inhibition % (GI%)
[8] = test system: 786-0; experiment: cells; type: cell-based; details: Homo sapiens, 786-0, read-out: growth inhibition % (GI%)
[9] = test system: DU-145; experiment: cells; type: cell-based; details: Homo sapiens, DU-145, read-out: growth inhibition % (GI%)
[10] = test system: SNB-19; experiment: cells; type: cell-based; details: Homo sapiens, SNB-19, read-out: growth inhibition % (GI%)
[11] = test system: NCI-H460; experiment: cells; type: cell-based; details: Homo sapiens, NCI-H460, read-out: growth inhibition % (GI%)
[12] = test system: KM12; experiment: cells; type: cell-based; details: Homo sapiens, KM12, read-out: growth inhibition % (GI%)
[13] = test system: NCI-H522; experiment: cells; type: cell-based; details: Homo sapiens, NCI-H522, read-out: growth inhibition % (GI%)
[14] = test system: T-47D; experiment: cells; type: cell-based; details: Homo sapiens, T47D, read-out: growth inhibition % (GI%)
[15] = test system: HT29; experiment: cells; type: cell-based; details: Homo sapiens, HT-29, read-out: growth inhibition % (GI%)
[16] = test system: SK-MEL-2; experiment: cells; type: cell-based; details: Homo sapiens, SK-MEL-2, read-out: growth inhibition % (GI%)
[17] = test system: HL-60(TB); experiment: cells; type: cell-based; details: Homo sapiens, HL-60, read-out: growth inhibition % (GI%)
[18] = test system: UACC-62; experiment: cells; type: cell-based; details: Homo sapiens, UACC-62, read-out: growth inhibition % (GI%)
[19] = test system: COLO-205; experiment: cells; type: cell-based; details: Homo sapiens, COLO 205, read-out: growth inhibition % (GI%)
[20] = test system: panel of 60 tumour cell lines; experiment: NCI 60 cell line antiproliferative screening (SRB), whole panel or subpanels (means, ranges, words); type: cell-based, human; details: Homo sapiens, 60 cell, mean over the cell line panel; 10 μM; read-out: Mean growth inhibition % (mean GI%)
[21] = test system: HCT-116; experiment: cells; type: cell-based; details: Homo sapiens, HCT-116, read-out: growth inhibition % (GI%)
[22] = test system: MDA-MB-468; experiment: NCI 60 cell line antiproliferative screening (SRB), Breast cancer; details: Homo sapiens, MDA-MB-468, read-out: growth inhibition % (GI%)
[23] = test system: TK-10; experiment: cells; type: cell-based; details: Homo sapiens, TK-10, read-out: growth inhibition % (GI%)
[24] = test system: HCT-15; experiment: cells; type: cell-based; details: Homo sapiens, HCT-15, read-out: growth inhibition % (GI%)
[25] = test system: OVCAR-4; experiment: cells; type: cell-based; details: Homo sapiens, OVCAR-4, read-out: growth inhibition % (GI%)
[26] = test system: BT-549; experiment: cells; type: cell-based; details: Homo sapiens, BT-549, read-out: growth inhibition % (GI%)
[27] = test system: RPMI-8226; experiment: cells; type: cell-based; details: Homo sapiens, RPMI-8226, read-out: growth inhibition % (GI%)
[28] = test system: SK-OV-3; experiment: cells; type: cell-based; details: Homo sapiens, SK-OV-3, read-out: growth inhibition % (GI%)
[29] = test system: OVCAR-3; experiment: NCI 60 cell line antiproliferative screening (SRB), Ovarian cancer; details: Homo sapiens, OVCAR-3, read-out: growth inhibition % (GI%)
[30] = test system: MOLT-4; experiment: cells; type: cell-based; details: Homo sapiens, MOLT-4, read-out: growth inhibition % (GI%)
[31] = test system: SR; experiment: cells; type: cell-based; details: Homo sapiens, read-out: growth inhibition % (GI%)
[32] = test system: IGROV1; experiment: cells; type: cell-based; details: Homo sapiens, IGROV-1, read-out: growth inhibition % (GI%)
[33] = test system: NCI-H322M; experiment: cells; type: cell-based; details: Homo sapiens, read-out: growth inhibition % (GI%)
[34] = test system: SK-MEL-28; experiment: cells; type: cell-based; details: Homo sapiens, SK-MEL-28, read-out: growth inhibition % (GI%)
[35] = test system: SNB-75; experiment: cells; type: cell-based; details: Homo sapiens, SNB-75, read-out: growth inhibition % (GI%)
[36] = test system: HCC-2998; experiment: cells; type: cell-based; details: Homo sapiens, HCC 2998, read-out: growth inhibition % (GI%)
[37] = test system: LOX IMIV; experiment: cells; type: cell-based; details: Homo sapiens, 60 cell, read-out: growth inhibition % (GI%)
[38] = test system: NCI/ADR-RES; experiment: cells; type: cell-based; details: Homo sapiens, read-out: growth inhibition % (GI%)
[39] = test system: UACC-257; experiment: cells; type: cell-based; details: Homo sapiens, UACC-257, read-out: growth inhibition % (GI%)
[40] = test system: MCF7; experiment: cells; type: cell-based; details: Homo sapiens, MCF7, read-out: growth inhibition % (GI%)
[41] = test system: OVCAR-5; experiment: cells; type: cell-based; details: Homo sapiens, OVCAR-5, read-out: growth inhibition % (GI%)
[42] = test system: NCI-H226; experiment: cells; type: cell-based; details: Homo sapiens, NCI-H226, read-out: growth inhibition % (GI%)
[43] = test system: HOP-92; experiment: cells; type: cell-based; details: Homo sapiens, HOP-92, read-out: growth inhibition % (GI%)
[44] = test system: EKVX; experiment: cells; type: cell-based; details: Homo sapiens, read-out: growth inhibition % (GI%)
[45] = test system: HS 578T; experiment: cells; type: cell-based; details: Homo sapiens, Hs-578T, read-out: growth inhibition % (GI%)
[46] = test system: A498; experiment: cells; type: cell-based; details: Homo sapiens, A498, read-out: growth inhibition % (GI%)

Compound: O=C(CSc1nc2ccccc2c(=O)n1-c1ccccc1)NN=Cc1ccc(Oc2ccc(Br)cc2)cc1 [6b, N'-(4–(4-bromophenoxy)benzylidene)-2-((4-oxo-3-phenyl-3,4-dihydroquinazolin-2-yl)thio) acetohydrazide]
- inhibition at 10 µM [1]: 19.2%
- inhibition at 10 µM [2]: 28.2%
- inhibition at 10 µM [3]: 36.1%
- inhibition at 10 µM [4]: 57.8%
- inhibition at 10 µM [5]: 31.3%
- inhibition at 10 µM [6]: 49.1%
- inhibition at 10 µM [7]: 78.5%
- inhibition at 10 µM [8]: 54%
- inhibition at 10 µM [9]: 61.7%
- inhibition at 10 µM [10]: 60.1%
- inhibition at 10 µM [11]: 72%
- inhibition at 10 µM [12]: 23.7%
- inhibition at 10 µM [13]: 51.5%
- inhibition at 10 µM [14]: 17.6%
- inhibition at 10 µM [15]: 61.8%
- inhibition at 10 µM [16]: < 15%
- inhibition at 10 µM [17]: < 15%
- inhibition at 10 µM [18]: 31.2%
- inhibition at 10 µM [19]: 55.6%
- inhibition at 10 µM [20]: 34.8%
- inhibition at 10 µM [21]: 92.2%
- inhibition at 10 µM [22]: 34.9%
- inhibition at 10 µM [23]: < 15%
- inhibition at 10 µM [24]: 36.3%
- inhibition at 10 µM [25]: 18.3%
- inhibition at 10 µM [26]: 26.9%
- inhibition at 10 µM [27]: 31.7%
- inhibition at 10 µM [28]: 15.5%
- inhibition at 10 µM [29]: < 15%
- inhibition at 10 µM [30]: 44.5%
- inhibition at 10 µM [31]: 26.6%
- inhibition at 10 µM [32]: 34.5%
- inhibition at 10 µM [33]: < 15%
- inhibition at 10 µM [34]: 29.1%
- inhibition at 10 µM [35]: 42.2%
- inhibition at 10 µM [36]: < 15%
- inhibition at 10 µM [37]: 79%
- inhibition at 10 µM [38]: 44.8%
- inhibition at 10 µM [39]: < 15%
- inhibition at 10 µM [40]: 31.1%
- inhibition at 10 µM [41]: < 15%
- inhibition at 10 µM [42]: 22.4%
- inhibition at 10 µM [43]: 27%
- inhibition at 10 µM [44]: 39.3%
- inhibition at 10 µM [45]: 39.2%
- inhibition at 10 µM [46]: 17.7%
